Laboratory results published in ChEMBL document CHEMBL4028801, “A multifactorial approach to hepatobiliary transporter assessment enables improved therapeutic compound development” (Toxicol Sci, 2013).

Assays:
[1] = biological target: Bile salt export pump (Homo sapiens, UniProt O95342); assay: Inhibition of human BSEP overexpressed in Sf9 cell membrane vesicles assessed as uptake of [3H]-taurocholate in presence of ATP measured after 15 to 20 mins by membrane vesicle transport assay; format: ADME, cell-based
[2] = Ratio of drug concentration at steady state in human at 40 to 80 mg, po QD after 24 hrs to IC50 for human MRP4 overexpressed in Sf9 insect cells; format: ADME, organism-based; settings: in vivo
[3] = Drug concentration at steady state in human at 40 to 80 mg, po QD after 24 hrs; format: ADME, organism-based; settings: in vivo, read-out: Css
[4] = Ratio of drug concentration at steady state in human at 40 to 80 mg, po QD after 24 hrs to IC50 for human BSEP overexpressed in Sf9 insect cells; format: ADME, organism-based; settings: in vivo
[5] = AUC in human at 40 to 80 mg, po QD after 24 hrs; format: ADME, organism-based; settings: in vivo
[6] = biological target: ATP-binding cassette sub-family C member 2 (Homo sapiens, UniProt Q92887); assay: Inhibition of human MRP2 overexpressed in Sf9 cell membrane vesicles assessed as uptake of [3H]-estradiol-17beta-D-glucuronide in presence of ATP and GSH measured after 20 mins by membrane vesicle transport assay
[7] = biological target: ATP-binding cassette sub-family C member 3 (Homo sapiens, UniProt O15438); assay: Inhibition of human MRP3 overexpressed in Sf9 insect cell membrane vesicles assessed as uptake of [3H]-estradiol-17beta-D-glucuronide in presence of ATP and GSH measured after 10 mins by membrane vesicle transport assay; format: ADME, cell-based
[8] = biological target: T1, ATP-binding cassette sub-family C member 4 (Homo sapiens, UniProt O15439); assay: Inhibition of human MRP4 overexpressed in Sf9 cell membrane vesicles assessed as uptake of [3H]-estradiol-17beta-D-glucuronide in presence of ATP and GSH measured after 20 mins by membrane vesicle transport assay; format: ADME, cell-based
T1 sequence (O15439 whole entry): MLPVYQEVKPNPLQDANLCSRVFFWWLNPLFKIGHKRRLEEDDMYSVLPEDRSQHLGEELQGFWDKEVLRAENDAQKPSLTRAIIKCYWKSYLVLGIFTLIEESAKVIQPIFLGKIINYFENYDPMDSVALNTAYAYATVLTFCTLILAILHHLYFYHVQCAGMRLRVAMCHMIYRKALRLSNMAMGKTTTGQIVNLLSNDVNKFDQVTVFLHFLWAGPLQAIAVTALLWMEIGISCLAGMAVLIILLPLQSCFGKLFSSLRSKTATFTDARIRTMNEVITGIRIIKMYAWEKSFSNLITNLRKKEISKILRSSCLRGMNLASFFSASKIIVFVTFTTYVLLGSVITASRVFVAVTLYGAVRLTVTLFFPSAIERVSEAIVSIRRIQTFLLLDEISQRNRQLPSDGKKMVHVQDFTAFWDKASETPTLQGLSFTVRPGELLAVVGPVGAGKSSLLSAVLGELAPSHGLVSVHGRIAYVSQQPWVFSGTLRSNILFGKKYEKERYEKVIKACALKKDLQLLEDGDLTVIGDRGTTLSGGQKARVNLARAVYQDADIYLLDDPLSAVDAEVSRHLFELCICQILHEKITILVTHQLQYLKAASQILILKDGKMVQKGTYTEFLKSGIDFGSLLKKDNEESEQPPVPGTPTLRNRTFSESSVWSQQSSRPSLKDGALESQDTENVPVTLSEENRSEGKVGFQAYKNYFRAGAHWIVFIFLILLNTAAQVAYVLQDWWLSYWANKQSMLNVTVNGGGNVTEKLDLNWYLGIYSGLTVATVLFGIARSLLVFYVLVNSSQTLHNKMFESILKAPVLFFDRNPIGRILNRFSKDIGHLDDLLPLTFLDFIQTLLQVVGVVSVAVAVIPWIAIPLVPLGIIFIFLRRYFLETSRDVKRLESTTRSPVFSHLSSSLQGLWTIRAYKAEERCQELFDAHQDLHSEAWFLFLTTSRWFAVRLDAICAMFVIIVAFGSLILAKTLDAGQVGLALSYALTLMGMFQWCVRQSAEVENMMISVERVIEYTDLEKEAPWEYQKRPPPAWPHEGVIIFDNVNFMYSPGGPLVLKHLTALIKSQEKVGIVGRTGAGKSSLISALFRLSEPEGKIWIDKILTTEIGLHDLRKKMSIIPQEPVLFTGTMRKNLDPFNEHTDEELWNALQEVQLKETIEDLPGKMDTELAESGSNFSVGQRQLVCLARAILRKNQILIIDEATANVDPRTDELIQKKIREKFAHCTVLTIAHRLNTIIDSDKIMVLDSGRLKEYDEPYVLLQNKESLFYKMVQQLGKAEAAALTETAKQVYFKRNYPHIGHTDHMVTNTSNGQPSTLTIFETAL

[9] = Drug concentration at steady state in human at 200 mg, po QD for 1 to 2 weeks after 24 hrs; format: ADME, organism-based; settings: in vivo, read-out: Css
[10] = test system: Homo sapiens; assay: Ratio of drug concentration at steady state in human at 200 mg, po QD for 1 to 2 weeks after 24 hrs to IC50 for human BSEP overexpressed in Sf9 insect cells; format: ADME, organism-based; settings: in vivo
[11] = AUC in human at 200 mg, po QD for 1 to 2 weeks after 24 hrs; format: ADME, organism-based; design: time < 24 hr, dose 200 mg, route oral; settings: in vivo
[12] = test system: Homo sapiens; assay: Ratio of drug concentration at steady state in human at 50 to 100 mg, po after 24 hrs to IC50 for human MRP4 overexpressed in Sf9 insect cells; format: ADME, organism-based; settings: in vivo
[13] = AUC in human at 50 to 100 mg, po QD after 24 hrs; format: ADME, organism-based; settings: in vivo
[14] = test system: Homo sapiens; assay: Ratio of drug concentration at steady state in patient with possible depletion of intravascular volume at 25 mg, po QD after 24 hrs to IC50 for human BSEP overexpressed in Sf9 insect cells; format: ADME, organism-based; settings: in vivo
[15] = AUC in patient with possible depletion of intravascular volume at 25 mg, po QD after 24 hrs; format: ADME, organism-based; design: time < 24 hr, dose 25 mg, route oral; settings: human, in vivo
[16] = Drug concentration at steady state in human at 50 to 100 mg, po QD after 24 hrs; format: ADME, organism-based; settings: in vivo, read-out: Css
[17] = test system: Homo sapiens; assay: Ratio of drug concentration at steady state in patient with possible depletion of intravascular volume at 25 mg, po QD after 24 hrs to IC50 for human MRP4 overexpressed in Sf9 insect cells; format: ADME, organism-based; settings: in vivo
[18] = Drug concentration at steady state in patient with possible depletion of intravascular volume at 25 mg, po QD after 24 hrs; format: ADME, organism-based; settings: human, in vivo, read-out: Css
[19] = test system: Homo sapiens; assay: Ratio of drug concentration at steady state in human at 50 to 100 mg, po after 24 hrs to IC50 for human BSEP overexpressed in Sf9 insect cells; format: ADME, organism-based; settings: in vivo
[20] = Drug concentration at steady state in human at 50 mg, po QD after 24 hrs; format: ADME, organism-based; settings: in vivo, read-out: Css
[21] = Ratio of drug concentration at steady state in human at 50 mg, po QD after 24 hrs to IC50 for human MRP3 overexpressed in Sf9 insect cells; format: ADME, organism-based; settings: in vivo
[22] = Ratio of drug concentration at steady state in human at 50 mg, po QD after 24 hrs to IC50 for human MRP4 overexpressed in Sf9 insect cells; format: ADME, organism-based; settings: in vivo
[23] = Ratio of drug concentration at steady state in human at 50 mg, po QD after 24 hrs to IC50 for human BSEP overexpressed in Sf9 insect cells; format: ADME, organism-based; settings: in vivo
[24] = AUC in human at 50 mg, po QD after 24 hrs; format: ADME, organism-based; design: dose 50 mg, time < 24 hr, route oral; settings: in vivo
[25] = Ratio of drug concentration at steady state in human at 50 mg, po QD after 24 hrs to IC50 for human MRP2 overexpressed in Sf9 insect cells; format: ADME, organism-based; settings: in vivo
[26] = AUC in human at 100 to 600 mg, po QD after 24 hrs; format: ADME, organism-based; settings: in vivo
[27] = Ratio of drug concentration at steady state in human at 100 to 600 mg, po QD after 24 hrs to IC50 for human BSEP overexpressed in Sf9 insect cells; format: ADME, organism-based; settings: in vivo
[28] = Drug concentration at steady state in human at 100 to 600 mg, po QD after 24 hrs; format: ADME, organism-based; settings: in vivo, read-out: Css
[29] = AUC in human at 50 to 400 mg, po BID after 12 hrs; format: ADME, organism-based; settings: in vivo
[30] = Drug concentration at steady state in human at 50 to 400 mg, po BID after 12 hrs; format: ADME, organism-based; settings: in vivo, read-out: Css
[31] = Ratio of drug concentration at steady state in human at 50 to 400 mg, po BID after 12 hrs to IC50 for human BSEP overexpressed in Sf9 insect cells; format: ADME, organism-based; settings: in vivo
[32] = Ratio of drug concentration at steady state in human at 40 to 80 mg, po TID after 8 hrs to IC50 for human MRP4 overexpressed in Sf9 insect cells; format: ADME, organism-based; settings: in vivo
[33] = Ratio of drug concentration at steady state in human at 40 to 80 mg, po TID after 8 hrs to IC50 for human BSEP overexpressed in Sf9 insect cells; format: ADME, organism-based; settings: in vivo
[34] = Drug concentration at steady state in human at 40 to 80 mg, po TID after 8 hrs; format: ADME, organism-based; settings: in vivo, read-out: Css
[35] = AUC in human at 40 to 80 mg, po TID after 8 hrs; format: ADME, organism-based; settings: in vivo

Chain of ATP-binding cassette sub-family C member 2 (Q92887 whole entry): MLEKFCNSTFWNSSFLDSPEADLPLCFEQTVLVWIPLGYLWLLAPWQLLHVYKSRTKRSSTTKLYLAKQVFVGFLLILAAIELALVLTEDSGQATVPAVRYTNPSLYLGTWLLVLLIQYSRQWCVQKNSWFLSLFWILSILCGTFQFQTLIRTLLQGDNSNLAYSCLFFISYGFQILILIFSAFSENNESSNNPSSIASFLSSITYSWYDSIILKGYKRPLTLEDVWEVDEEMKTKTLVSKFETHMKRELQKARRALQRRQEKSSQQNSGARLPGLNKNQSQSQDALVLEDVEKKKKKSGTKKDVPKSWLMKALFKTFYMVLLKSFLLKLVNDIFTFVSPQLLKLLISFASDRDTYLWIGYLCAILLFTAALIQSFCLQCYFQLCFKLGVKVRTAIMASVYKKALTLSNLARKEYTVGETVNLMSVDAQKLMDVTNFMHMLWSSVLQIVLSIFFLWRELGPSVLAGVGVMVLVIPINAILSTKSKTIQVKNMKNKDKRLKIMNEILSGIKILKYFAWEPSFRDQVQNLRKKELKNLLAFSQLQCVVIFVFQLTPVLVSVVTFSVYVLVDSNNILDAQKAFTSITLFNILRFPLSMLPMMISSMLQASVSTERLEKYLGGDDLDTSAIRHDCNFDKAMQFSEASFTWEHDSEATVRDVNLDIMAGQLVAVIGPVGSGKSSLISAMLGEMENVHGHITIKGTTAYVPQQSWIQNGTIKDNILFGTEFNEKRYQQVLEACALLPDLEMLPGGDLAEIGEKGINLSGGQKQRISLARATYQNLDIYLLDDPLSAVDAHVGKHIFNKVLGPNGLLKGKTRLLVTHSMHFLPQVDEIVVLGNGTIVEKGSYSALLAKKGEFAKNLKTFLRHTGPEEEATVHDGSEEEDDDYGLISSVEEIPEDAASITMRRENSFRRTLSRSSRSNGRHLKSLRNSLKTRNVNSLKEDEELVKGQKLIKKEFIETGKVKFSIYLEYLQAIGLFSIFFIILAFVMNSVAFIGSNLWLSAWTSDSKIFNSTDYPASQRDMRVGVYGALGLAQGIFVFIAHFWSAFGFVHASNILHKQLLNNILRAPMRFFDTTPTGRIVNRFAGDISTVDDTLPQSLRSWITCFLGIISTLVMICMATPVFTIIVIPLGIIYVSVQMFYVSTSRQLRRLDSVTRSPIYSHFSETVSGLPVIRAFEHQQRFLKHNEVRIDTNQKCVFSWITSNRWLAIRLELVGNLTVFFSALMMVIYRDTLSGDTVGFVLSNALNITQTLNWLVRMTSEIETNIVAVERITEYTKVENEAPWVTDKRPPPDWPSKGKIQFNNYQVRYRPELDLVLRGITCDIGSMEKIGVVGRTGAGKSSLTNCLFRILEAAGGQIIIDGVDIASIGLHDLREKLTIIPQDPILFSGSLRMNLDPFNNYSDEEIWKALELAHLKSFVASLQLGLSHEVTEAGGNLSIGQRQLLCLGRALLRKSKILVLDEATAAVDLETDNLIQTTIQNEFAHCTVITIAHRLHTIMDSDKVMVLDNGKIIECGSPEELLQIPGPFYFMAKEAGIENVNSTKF
Chain of ATP-binding cassette sub-family C member 3 (O15438 whole entry): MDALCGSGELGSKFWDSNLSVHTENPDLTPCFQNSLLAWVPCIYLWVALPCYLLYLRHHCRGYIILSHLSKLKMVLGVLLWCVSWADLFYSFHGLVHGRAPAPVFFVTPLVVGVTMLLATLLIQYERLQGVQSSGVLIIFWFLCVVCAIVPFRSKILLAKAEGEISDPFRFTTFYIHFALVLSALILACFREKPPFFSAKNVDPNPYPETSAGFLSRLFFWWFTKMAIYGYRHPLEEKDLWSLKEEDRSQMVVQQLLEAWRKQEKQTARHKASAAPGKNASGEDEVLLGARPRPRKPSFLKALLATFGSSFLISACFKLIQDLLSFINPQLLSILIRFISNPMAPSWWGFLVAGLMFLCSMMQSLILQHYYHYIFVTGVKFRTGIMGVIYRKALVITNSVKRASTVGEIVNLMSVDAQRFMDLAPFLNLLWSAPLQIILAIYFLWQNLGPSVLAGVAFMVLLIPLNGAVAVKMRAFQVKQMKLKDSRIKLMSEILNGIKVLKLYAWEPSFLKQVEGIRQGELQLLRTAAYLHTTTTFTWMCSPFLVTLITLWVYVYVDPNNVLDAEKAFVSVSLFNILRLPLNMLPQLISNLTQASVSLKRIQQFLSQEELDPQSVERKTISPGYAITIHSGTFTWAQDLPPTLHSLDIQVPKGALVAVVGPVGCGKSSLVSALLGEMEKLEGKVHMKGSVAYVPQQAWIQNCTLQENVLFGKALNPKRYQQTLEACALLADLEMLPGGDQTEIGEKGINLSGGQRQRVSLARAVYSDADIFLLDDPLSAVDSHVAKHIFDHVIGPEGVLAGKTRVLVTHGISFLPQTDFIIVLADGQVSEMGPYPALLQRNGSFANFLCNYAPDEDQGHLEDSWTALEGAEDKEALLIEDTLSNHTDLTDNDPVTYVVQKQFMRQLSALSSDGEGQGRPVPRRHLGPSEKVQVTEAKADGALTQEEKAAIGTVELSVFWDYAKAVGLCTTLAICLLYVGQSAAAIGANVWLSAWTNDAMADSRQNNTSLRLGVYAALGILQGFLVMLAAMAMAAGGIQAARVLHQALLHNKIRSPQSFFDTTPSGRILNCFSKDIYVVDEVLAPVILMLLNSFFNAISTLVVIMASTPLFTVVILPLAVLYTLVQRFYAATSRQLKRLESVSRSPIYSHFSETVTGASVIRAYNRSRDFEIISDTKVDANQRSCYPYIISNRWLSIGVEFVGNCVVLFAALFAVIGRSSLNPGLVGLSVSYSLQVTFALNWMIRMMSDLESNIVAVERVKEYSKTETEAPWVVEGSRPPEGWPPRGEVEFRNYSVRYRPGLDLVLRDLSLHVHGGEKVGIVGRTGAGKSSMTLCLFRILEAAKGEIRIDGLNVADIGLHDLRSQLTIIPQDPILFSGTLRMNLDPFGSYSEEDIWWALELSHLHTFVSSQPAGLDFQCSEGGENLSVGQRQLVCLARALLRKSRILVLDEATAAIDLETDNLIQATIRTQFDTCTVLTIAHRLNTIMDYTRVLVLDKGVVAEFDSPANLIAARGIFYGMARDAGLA
Chain of Bile salt export pump (O95342 whole entry): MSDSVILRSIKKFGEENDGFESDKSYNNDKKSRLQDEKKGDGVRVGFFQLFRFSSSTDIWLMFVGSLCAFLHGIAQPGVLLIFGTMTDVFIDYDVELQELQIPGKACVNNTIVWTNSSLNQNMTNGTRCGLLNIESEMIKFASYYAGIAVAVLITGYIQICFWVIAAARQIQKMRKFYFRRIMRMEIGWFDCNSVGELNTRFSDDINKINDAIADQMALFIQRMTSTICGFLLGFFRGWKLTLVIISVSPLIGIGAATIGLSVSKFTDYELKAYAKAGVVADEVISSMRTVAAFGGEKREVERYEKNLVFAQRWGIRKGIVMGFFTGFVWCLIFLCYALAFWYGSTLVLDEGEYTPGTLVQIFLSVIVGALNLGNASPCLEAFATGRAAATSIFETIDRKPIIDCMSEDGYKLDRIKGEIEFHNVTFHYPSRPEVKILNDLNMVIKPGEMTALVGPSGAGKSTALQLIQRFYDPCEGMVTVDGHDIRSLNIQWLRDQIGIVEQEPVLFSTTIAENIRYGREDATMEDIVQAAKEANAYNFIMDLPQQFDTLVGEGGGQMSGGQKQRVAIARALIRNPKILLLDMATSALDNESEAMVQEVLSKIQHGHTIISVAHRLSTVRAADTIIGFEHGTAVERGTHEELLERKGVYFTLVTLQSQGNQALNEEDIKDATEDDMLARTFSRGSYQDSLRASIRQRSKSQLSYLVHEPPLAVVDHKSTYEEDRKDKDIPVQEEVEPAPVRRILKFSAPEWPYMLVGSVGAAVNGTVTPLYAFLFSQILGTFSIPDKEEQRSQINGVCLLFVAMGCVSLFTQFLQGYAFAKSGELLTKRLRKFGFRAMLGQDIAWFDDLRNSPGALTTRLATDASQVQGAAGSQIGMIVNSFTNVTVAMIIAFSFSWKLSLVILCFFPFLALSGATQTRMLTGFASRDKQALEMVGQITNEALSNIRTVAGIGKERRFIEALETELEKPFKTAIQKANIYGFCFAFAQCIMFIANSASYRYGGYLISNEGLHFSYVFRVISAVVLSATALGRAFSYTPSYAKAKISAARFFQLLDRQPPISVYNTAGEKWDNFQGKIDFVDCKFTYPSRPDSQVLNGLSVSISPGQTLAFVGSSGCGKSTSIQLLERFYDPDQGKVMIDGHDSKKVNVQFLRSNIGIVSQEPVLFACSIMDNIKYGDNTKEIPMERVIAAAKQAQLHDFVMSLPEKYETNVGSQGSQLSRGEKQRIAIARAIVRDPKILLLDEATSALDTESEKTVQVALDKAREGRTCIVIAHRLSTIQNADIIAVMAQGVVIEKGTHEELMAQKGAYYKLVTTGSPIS

For Cc1nc(-c2ccc(OCC(C)C)c(C#N)c2)sc1C(=O)O [FEBUXOSTAT], the IC50 [1] was 42.9 µM, the Ratio [2] was 0.55 and the concentration at 24 h [3] was 1050 nM. The Ratio [4] was 0.024, the AUC at 24 h [5] was 25.1 µM·h and the IC50 [6] was over 133 µM. The IC50 [7] was over 133 µM and the IC50 [8] was 1.9 µM.
Work on CCC(C)n1ncn(-c2ccc(N3CCN(c4ccc(OCC5COC(Cn6cncn6)(c6ccc(Cl)cc6Cl)O5)cc4)CC3)cc2)c1=O (stereo not given) [ITRACONAZOLE] yielded a concentration at 24 h [9] of 362 nM, a Ratio [10] of 0.02 and an AUC at 24 h [11] of 8.69 µM·h. For the same compound, the IC50 [6] was over 133 µM, the IC50 [7] was over 133 µM and the IC50 [8] was over 133 µM.
CCCCc1nc(Cl)c(CO)n1Cc1ccc(-c2ccccc2-c2nnn[n-]2)cc1.[K+] [LOSARTAN POTASSIUM] gave a Ratio [12] of 0.003, an IC50 [1] of 8.53 µM and an AUC at 24 h [13] of 2.42 µM·h. It also gave a Ratio [14] of 0.012, an AUC at 24 h [15] of 2.42 µM·h and a concentration at 24 h [16] of 101 nM. For the same compound, the Ratio [17] was 0.003, the IC50 [7] was over 133 µM and the concentration at 24 h [18] was 101 nM. It also gave a Ratio [19] of 0.012 and an IC50 [8] of 34.1 µM.
CC(/C=C1\SC(=S)N(CC(=O)O)C1=O)=C\c1ccccc1 gave a concentration at 24 h [20] of 835 nM, an IC50 [1] of 36.8 µM and a Ratio [21] of 0.018. It also gave a Ratio [22] of 0.128, a Ratio [23] of 0.01 and an IC50 [6] of 84.4 µM. For the same compound, the IC50 [7] was 45.8 µM, the AUC at 24 h [24] was 20 µM·h and the Ratio [25] was 0.01. For the same compound, the IC50 [8] was 6.5 µM.
CCOC(=O)Nc1ccc(NCc2ccc(F)cc2)nc1N [FLUPIRTINE] gave an AUC at 24 h [26] of 20 µM·h, a Ratio [27] of 0.023 and an IC50 [6] of over 133 µM. It also gave an IC50 [7] of over 133 µM, an IC50 [8] of over 133 µM and a concentration at 24 h [28] of 832 nM.
Compound C#C[C@]1(O)CC[C@H]2[C@@H]3CCC4=Cc5oncc5C[C@]4(C)[C@H]3CC[C@@]21C [DANAZOL] has an IC50 [1] of 18.7 µM, an AUC at 12 h [29] of 5.48 µM·h and a concentration at 12 h [30] of 457 nM. The IC50 [6] was over 133 µM, the IC50 [7] was over 133 µM and the Ratio [31] was 0.024. For the same compound, the IC50 [8] was over 133 µM.
Compound CCOc1ccc(/C=C2\NCCc3cc(OCC)c(OCC)cc32)cc1OCC [DROTAVERINE] has a Ratio [32] of 0.042, a Ratio [33] of 0.028 and a concentration at 8 h [34] of 1020 nM. For the same compound, the IC50 [6] was over 133 µM, the AUC at 8 h [35] was 8.18 µM·h and the IC50 [7] was over 133 µM. For the same compound, the IC50 [8] was 24.5 µM.
